This passage reports Ki results from paper PMC7753147, “High-throughput determination of protein affinities using unmodified peptide libraries in nanomolar scale” (iScience, 2020).

The target in the assay is T1, gephE (Rattus norvegicus, UniProt Q03555).
T1 construct: gephE (residues 318-736) was generated; made in house
T1 sequence (Q03555 350-768): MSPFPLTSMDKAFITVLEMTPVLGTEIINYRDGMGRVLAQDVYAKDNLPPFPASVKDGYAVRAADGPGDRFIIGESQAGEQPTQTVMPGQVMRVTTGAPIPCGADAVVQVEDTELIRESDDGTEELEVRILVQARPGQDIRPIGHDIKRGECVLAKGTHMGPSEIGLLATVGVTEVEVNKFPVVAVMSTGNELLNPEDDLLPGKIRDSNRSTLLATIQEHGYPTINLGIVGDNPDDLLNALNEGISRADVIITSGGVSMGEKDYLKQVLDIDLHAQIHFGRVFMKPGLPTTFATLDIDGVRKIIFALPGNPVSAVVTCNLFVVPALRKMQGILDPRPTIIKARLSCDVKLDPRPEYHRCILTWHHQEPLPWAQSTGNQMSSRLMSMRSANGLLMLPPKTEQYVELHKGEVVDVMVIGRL
In words: TRIC displacement 12-point dose response against gephE-NN1D-Alexa647 complex. The format is binding.

Structures are written as SMILES. Where a SMILES comes first, the peptide text is derived from it.

In general, Ki refers to a measure of affinity in units of concentration, obtained from inhibition or displacement. A high value points to a looser hold on the target. With `CC(C)C[C@H](NC(=O)[C@H](CO)NC(=O)[C@H](Cc1ccccc1)NC(=O)[C@H](CC(=O)O)NC(=O)[C@H](CC(N)=O)NC(=O)[C@H](CO)NC(=O)[C@H](CCCNC(=N)N)NC(=O)[C@H](CC(C)C)NC(=O)[C@@H](N)CC(=O)O)C(=O)N[C@H](C(=O)NCC(=O)N[C@@H](CO)C(=O)N[C@@H](CC(C)C)C(=O)N1CCC[C@H]1C(=O)N[C@@H](CCCNC(=N)N)C(N)=O)C(C)C` [GlyRβ_Full_Positional_Scan_164] (H-DLRSNDFSLVGSLPR-NH2), the Ki was 22.4 µM. Turning to `CC[C@H](C)[C@H](NC(=O)[C@@H](NC(=O)[C@H](Cc1ccccc1)NC(=O)[C@H](CC(=O)O)NC(=O)[C@H](CC(N)=O)NC(=O)[C@H](CO)NC(=O)[C@H](CCCNC(=N)N)NC(=O)[C@H](CC(C)C)NC(=O)[C@@H](N)CC(=O)O)[C@@H](C)O)C(=O)N[C@H](C(=O)NCC(=O)N[C@@H](CO)C(=O)N[C@@H](CC(C)C)C(=O)N1CCC[C@H]1C(=O)N[C@@H](CCCNC(=N)N)C(N)=O)C(C)C` [GlyRβ_Full_Positional_Scan_156] (H-DLRSNDFTIVGSLPR-NH2), the affinity, expressed as Ki, was 16.6 µM. Under `CC[C@H](C)[C@H](NC(=O)[C@H](CO)NC(=O)[C@H](Cc1c[nH]c2ccccc12)NC(=O)[C@H](CC(=O)O)NC(=O)[C@H](CC(N)=O)NC(=O)[C@H](CO)NC(=O)[C@H](CCCNC(=N)N)NC(=O)[C@H](CC(C)C)NC(=O)[C@@H](N)CC(=O)O)C(=O)N[C@H](C(=O)NCC(=O)N[C@@H](CO)C(=O)N[C@@H](CC(C)C)C(=O)N1CCC[C@H]1C(=O)N[C@@H](CCCNC(=N)N)C(N)=O)C(C)C` [GlyRβ_Full_Positional_Scan_128] (H-DLRSNDWSIVGSLPR-NH2) stands 31.9 µM; under `CC(C)C[C@H](NC(=O)[C@@H](N)CC(=O)O)C(=O)N[C@@H](CCCNC(=N)N)C(=O)N[C@@H](CO)C(=O)N[C@@H](CC(N)=O)C(=O)N[C@@H](CC(=O)O)C(=O)N[C@@H](Cc1ccccc1)C(=O)N[C@@H](CO)C(=O)N[C@H](C(=O)N[C@H](C(=O)NCC(=O)N[C@@H](CO)C(=O)N[C@@H](CC(C)C)C(=O)N1CCC[C@H]1C(=O)N[C@@H](CCCNC(=N)N)C(N)=O)C(C)C)C(C)C` [GlyRβ_Full_Positional_Scan_166] (H-DLRSNDFSVVGSLPR-NH2), 21.4 µM; under `CC[C@H](C)[C@H](NC(=O)CNC(=O)[C@H](Cc1ccccc1)NC(=O)[C@H](CC(=O)O)NC(=O)[C@H](CC(N)=O)NC(=O)[C@H](CO)NC(=O)[C@H](CCCNC(=N)N)NC(=O)[C@H](CC(C)C)NC(=O)[C@@H](N)CC(=O)O)C(=O)N[C@H](C(=O)NCC(=O)N[C@@H](CO)C(=O)N[C@@H](CC(C)C)C(=O)N1CCC[C@H]1C(=O)N[C@@H](CCCNC(=N)N)C(N)=O)C(C)C` [GlyRβ_Full_Positional_Scan_142] (H-DLRSNDFGIVGSLPR-NH2), 42.4 µM. Under `CC[C@H](C)[C@H](NC(=O)[C@H](CO)NC(=O)[C@H](Cc1ccccc1)NC(=O)[C@H](CC(=O)O)NC(=O)[C@H](CC(N)=O)NC(=O)[C@H](CO)NC(=O)[C@H](CCCNC(=N)N)NC(=O)[C@H](CC(C)C)NC(=O)[C@@H](N)CC(=O)O)C(=O)N[C@H](C(=O)NCC(=O)N[C@@H](CO)C(=O)N[C@@H](CC(C)C)C(=O)N1CCC[C@H]1C(=O)N[C@@H](CCCNC(=N)N)C(N)=O)[C@@H](C)CC` [GlyRβ_Full_Positional_Scan_183] (H-DLRSNDFSIIGSLPR-NH2) stands 9.01 µM; under `CC[C@H](C)[C@H](NC(=O)[C@H](CO)NC(=O)[C@H](Cc1ccc(O)cc1)NC(=O)[C@H](CC(=O)O)NC(=O)[C@H](CC(N)=O)NC(=O)[C@H](CO)NC(=O)[C@H](CCCNC(=N)N)NC(=O)[C@H](CC(C)C)NC(=O)[C@@H](N)CC(=O)O)C(=O)N[C@H](C(=O)NCC(=O)N[C@@H](CO)C(=O)N[C@@H](CC(C)C)C(=O)N1CCC[C@H]1C(=O)N[C@@H](CCCNC(=N)N)C(N)=O)C(C)C` [GlyRβ_Full_Positional_Scan_129] (H-DLRSNDYSIVGSLPR-NH2), 185 µM.
